In patent US20100304409A1, “METHOD FOR DETECTING PREMATURE SENESCENCE IN TUMOR CELLS AND A KIT FOR DETECTING PREMATURE SENESCENCE IN TUMOR CELLS” (KOREA INSTITUTE OF RADIOLOGICAL & MEDICAL SCIENCES, priority 2009, published 2010):

Columns and labels:
Format in all cases: cell-based
[1] = tested on: P-pRb (phosphorylated retinoblastoma); assay: Western blot analysis of P-pRb (G1/S arrest marker), MCF7; conditions: MCF7, double thymidine treatment (15 h, 0.5 mg/mL, 8 h interval), arrested
Procedure: (§1) The breast cancer cell line (MCF7) of Section 1-1, taken 4 days after irradiation exposure was applied to the cells, was washed with PBS, and the cell sample was subjected to protein extraction using a cell lysis buffer (50 mM Tri-HCl, 1% NP-40, 0.25% sodium deoxycholate, 150 mM NaCl, 1 mM PMSF, 50 mM NaF, 0.2 mM Na3VO4, 10 g/mL aprotinin, and 2 g/mL leupeptin). The extracted protein was centrifuged at 11,000 rpm for 10 min. The supernatant was collected and subjected to quantitative analysis using Bradford protein assay (Bradford, M., Anal. Biochem. 72:248-254 (1976)). 20 μg of the protein was added to 2× SDS loading buffer (60 mm Tris-Cl (pH 6.8), 25% glycerol, 2% SDS, 14.4 mM mercaptoethanol, and 0.1% bromophenol blue), and the mixture was heated at 95 for 5 min and subjected to electrophoresis on 8% SDS polyacrylamide gel at 80V for 2 hours. After the electrophoresis was complete, the separated protein was transferred to a nitrocellulose membrane (Whatman). The protein-transferred membrane was placed in a PBS solution containing 5% nonfat dry milk, and allowed to stand at room temperature for 1 hour to be blocked. Primary antibodies diluted to 1:1000 were added thereto, followed by reaction at 4 for 16 hours. […]

CDK2 = assay: Western blot analysis of CDK2 (G1/S arrest marker), MCF7; conditions: MCF7, double thymidine treatment (15 h, 0.5 mg/mL, 8 h interval), arrested
Procedure: as §1

CD (cathepsin D) [2] = assay: Western blot analysis of CD level, MCF7
Procedure: (§2) The breast cancer cell line (MCF7) of Section 1-1, taken 4 days after irradiation exposure was applied to the cells, was washed with PBS, and the cell sample was subjected to protein extraction using a cell lysis buffer (50 mM Tri-HCl, 1% NP-40, 0.25% sodium deoxycholate, 150 mM NaCl, 1 mM PMSF, 50 mM NaF, 0.2 mM Na3VO4, 10 g/mL aprotinin, and 2 g/mL leupeptin). The extracted protein was centrifuged at 11,000 rpm for 10 min. The supernatant was collected and subjected to quantitative analysis using Bradford protein assay (Bradford, M., Anal. Biochem. 72:248-254 (1976)). 20 μg of the protein was added to 2× SDS loading buffer (60 mm Tris-Cl (pH 6.8), 25% glycerol, 2% SDS, 14.4 mM mercaptoethanol, and 0.1% bromophenol blue), and the mixture was heated at 95 for 5 min and subjected to electrophoresis on 8% SDS polyacrylamide gel at 80V for 2 hours. After the electrophoresis was complete, the separated protein was transferred to a nitrocellulose membrane (Whatman). The protein-transferred membrane was placed in a PBS solution containing 5% nonfat dry milk, and allowed to stand at room temperature for 1 hour to be blocked. Primary antibodies diluted to 1:1000 were added thereto, followed by reaction at 4 for 16 hours. The primary antibodies were polyclonal anti-eEF1A1 antibodies (Abcam, Mass., USA, Cat # ab37969 ) and anti-CD antibodies (Santa Cruz Biotechnology, Calif., USA, Cat # SC-6494 ). The secondary antibodies were horseradish peroxidase-conjugated anti-rabbit antibodies (GE healthcare, Backinghanshire, UK, Cat # NA934V). In addition, an enhanced chemiluminescence (ECL) reagent (Amersham Biosciences, Piscataway, N.J.) was used for confirmation of the reaction. Actin was used as an internal positive control, and primary antibodies were anti-actin antibodies (Santa Cruz Biotechnology, Calif., USA, Cat # SC-1616).
(§3) The signal intensity was scanned with HP Scanjet 2400 (Hewlett-Packard Company, Palo Alto, Calif., USA) and analyzed with ImageJ Program (http://rsb.info.nih.gov/ij/).
(§4) The procedure was performed in the same manner as in Section 1-6 of Example 1, except that the cell line with treatment of doxorubicin at a high dose and the cell line with treatment of doxorubicin at a low dose, each of which prepared in Section 4-1, were used. In order to confirm the occurrence of apoptosis, a level of poly(ADP-ribose) polymerase (PARP) serving as an apoptosis biomarker was detected according to Western blot analysis as in Section 1-6 of Example 1, except that polyclonal anti-PARP antibodies (Cell Signaling Technology, Mass., USA, Cat #9541) were used as primary antibodies.
(§5) The procedure was performed in the same manner as in Section 1-6 of Example 1, except that the cell line prepared in Section 6-1 was used.
(§6) P-pRb and CDK2 were used as markers of G1/S phase transition arrest. Protein levels were confirmed by Western blot analysis in the same manner as in Section 1-6 of Example 1, except that primary antibodies directed against P-pRb were Phosphoro-pRb antibodies (Cell Signaling Technology, Danvers, Mass., Cat #9308), and primary antibodies directed against CDK2 were anti-CDK2 antibodies (Santa Cruze Biotechnology, Calif., USA, Cat #SC-163).
(§7) The procedure was performed in the same manner as in Section 1-6 of Example 1, except that the cell line prepared in Section 8-1 was used. In order to detect changes in levels of LC3-II which is an autophagy biomarker, anti-LC3-II antibodies (Sigma, Mo., USA, Cat #L8919) were used as primary antibodies directed against LC3-II.

[3] = tested on: eEF1A1 (eukaryotic elongation factor 1 alpha 1); assay: Western blot analysis of eEF1A1 level, MCF7
Procedure: as §2, §3, §4, §5, §6, §7

[4] = tested on: breast cancer cell line (MCF7); assay: Senescence-associated β-galactosidase activity staining, MCF7
Procedure: The cells were washed twice with PBS and fixed with 3% formaldehyde at room temperature for 3 to 5 min. The fixed cells were washed once again with PBS, and 5 mL of a β-galactosidase activity staining solution (1 mg/mL X-Gal, 40 mM citric acid/sodium phosphate (pH 6.0), 5 mM potassium ferrocyanide, 5 mM potassium ferricyanide, 150 mM sodium chloride, and 2 mM magnesium chloride) was added thereto, followed by reaction in an incubator at 37 for 12 to 16 hours. During the reaction, the cells were cultured under light-shielding conditions by wrapping of the culture dish in silver foil.

[5] = tested on: breast cancer cell line (MCF7); assay: Microscopic examination of cell morphology, MCF7; conditions: for cell morphology: time course 0-96 hours
Procedure: In order to confirm premature senescence, characteristic morphological changes of cells in the control group and the breast cancer cell line 4 days after irradiation exposure thereof, each of which prepared in Section 1-1, were examined under a microscope (ECLIPSE TE300, Nikon).
In order to ascertain doxorubicin-induced senescence or apoptosis of a tumor cell line, the procedure was carried out in the same manner as in Section 1-2 of Example 1, except that the experiment was conducted according to a time-course schedule (0, 16, 24, 48, and 96 hours) using the cell line of Section 4-1.
Morphological changes of cells in the control group and the tamoxifen-treated group of Section 8-1 were examined under a microscope (ECLIPSE TE300, Nikon).

[6] = tested on: eEF1A1 (eukaryotic elongation factor 1 alpha 1); assay: Western blot analysis of eEF1A1 level, H460
Procedure: (§8) The breast cancer cell line (MCF7) of Section 1-1, taken 4 days after irradiation exposure was applied to the cells, was washed with PBS, and the cell sample was subjected to protein extraction using a cell lysis buffer (50 mM Tri-HCl, 1% NP-40, 0.25% sodium deoxycholate, 150 mM NaCl, 1 mM PMSF, 50 mM NaF, 0.2 mM Na3VO4, 10 g/mL aprotinin, and 2 g/mL leupeptin). The extracted protein was centrifuged at 11,000 rpm for 10 min. The supernatant was collected and subjected to quantitative analysis using Bradford protein assay (Bradford, M., Anal. Biochem. 72:248-254 (1976)). […]
as §4, with “antibodies. […]” for “antibodies.”

[7] = tested on: poly(ADP-ribose) polymerase (PARP); assay: Western blot analysis of PARP cleavage (apoptosis biomarker), MCF7; conditions: MCF7, high dose (10 μg/mL)
Procedure: as §8, §4

[8] = tested on: lung cancer cell line H460; assay: Microscopic examination of cell morphology, H460; conditions: 96 hours
Procedure: In order to ascertain doxorubicin-induced senescence or apoptosis of a tumor cell line, the procedure was carried out in the same manner as in Section 1-2 of Example 1, except that the experiment was conducted 96 hours after treatment of doxorubicin on the cell line of Section 5-1.

CD (cathepsin D) [9] = assay: Western blot analysis of CD level, H460
Procedure: as §8
as §4, with “antibodies. […]” for “antibodies.”

LC3-II = assay: Western blot analysis of LC3-II (autophagy biomarker), MCF7; conditions: MCF7, tamoxifen 10 μmol/L for 2 days
Procedure: as §1

[10] = MCF7, double thymidine block, arrested at G1/S
[11] = MCF7, released from DTB, additional 48 h
[12] = MCF7, camptothecin 40 nM, etoposide 30 μM
[13] = MCF7, camptothecin 40 nM, etoposide 30 μM, control group (Con)=1
[14] = H460, high-dose doxorubicin (10 μg/mL), apoptosis
[15] = H460, low-dose doxorubicin (50 ng/mL)
[16] = MCF7, Day 4, Day 0=1, ImageJ scanning, dose not restated (senescence, low dose implied)
[17] = MCF7, high dose (10 μg/mL), apoptotic conditions
[18] = MCF7, low-dose doxorubicin (50 ng/mL)
[19] = MCF7, tamoxifen 10 μmol/L for 2 days, autophagy

## Cc1cn([C@H]2C[C@H](O)[C@@H](CO)O2)c(=O)[nH]c1=O [DTB, thymidine]
[1]
  phosphorylated pRb level (Western blot): decrease
CDK2
  CDK2 level (Western blot): accumulation
CD (cathepsin D) [2]; [10]
  protein level of CD (Western blot): No significant alteration
CD (cathepsin D) [2]; [11]
  CD level (Western blot): did not exhibit any alteration
[3]; [10]
  protein level of eEF1A1 (Western blot): No significant alteration
[3]; [11]
  eEF1A1 level (Western blot): did not exhibit any alteration

## CC[C@@]1(O)C(=O)OCc2c1cc1n(c2=O)Cc2cc3ccccc3nc2-1 [camptothecin]
[4]; MCF7, camptothecin 40 nM, etoposide 30 μM, versus control group
  senescence-associated β-galactosidase activity staining: exhibited characteristics of premature senescence
CD (cathepsin D) [2]; [12]
  level of CD (Western blot): increases
CD (cathepsin D) [2]; [13]
  CD band signal intensity, relative: 7.46
[3]; [12]
  level of eEF1A1 (Western blot): decreases
[3]; [13]
  eEF1A1 band signal intensity, relative: 0.73

## COc1cccc2c1C(=O)c1c(O)c3c(c(O)c1C2=O)C[C@@](O)(C(=O)CO)C[C@@H]3O[C@H]1C[C@H](N)[C@H](O)[C@H](C)O1 [doxorubicin]
[5]; MCF7, high dose (10 μg/mL)
  cell morphology: apoptosis-specific morphological changes
[5]; MCF7, low dose (50 ng/mL)
  cell morphology: senescence-specific morphological changes
[6]; [14]
  level of eEF1A1 (Western blot): no changes
[6]; [15]
  level of eEF1A1 (Western blot): decreases
[4]; MCF7, 4 days after treatment of doxorubicin (50 ng/mL)
  SA-β-gal staining: positive SA-β-gal staining
[7]
  PARP cleavage (apoptotic marker): induced
[8]; H460, high dose (10 μg/mL)
  cell morphology: apoptosis-specific morphological changes
[8]; H460, low dose (50 ng/mL)
  cell morphology: senescence-specific morphological changes
CD (cathepsin D) [2]; [16]
  CD band signal intensity, relative: 2.45
CD (cathepsin D) [2]; [17]
  protein level of CD (Western blot): gradually decreased
CD (cathepsin D) [2]; [18]
  level of CD (Western blot): increases
CD (cathepsin D) [9]; [14]
  level of CD (Western blot): no changes
CD (cathepsin D) [9]; [15]
  level of CD (Western blot): increases
[3]; [16]
  eEF1A1 band signal intensity, relative: 0.53
[3]; [17]
  protein level of eEF1A1 (Western blot): remained unaltered
[3]; [18]
  level of eEF1A1 (Western blot): decreases

## COc1cc([C@@H]2c3cc4c(cc3[C@@H](O[C@@H]3O[C@@H]5CO[C@@H](C)O[C@H]5[C@H](O)[C@H]3O)[C@H]3COC(=O)[C@H]23)OCO4)cc(OC)c1O [etoposide]
CD (cathepsin D) [2]; [12]
  level of CD (Western blot): increases
[3]; [12]
  level of eEF1A1 (Western blot): decreases

## CC/C(=C(\c1ccccc1)c1ccc(OCCN(C)C)cc1)c1ccccc1 [tamoxifen]
[5]; MCF7, tamoxifen 10 μmol/L for 2 days
  cell morphology (autophagy): occurrence of autophagy
LC3-II
  level of LC3-II (Western blot): increased level
CD (cathepsin D) [2]; [19]
  level of CD (Western blot): decreased
[3]; [19]
  level of eEF1A1 (Western blot): decreased
